Laboratory results taken from patent publication US20240392315A1, “COMPOSITION FOR CELL ADDITION” (priority 2021, published 2024).
Read-outs that look alike come from different tables or passages of the source.

Experiments:
HEK293 cells [1] = system: HEK293 cells
AAV2-producing cells = system: AAV2-producing cells
Description: In order to identify metabolic changes that occurred in AAV2-producing cells when ethanol was added and important factors, intracellular proteins were extracted from cells with and without addition of ethanol during AAV2 production, the extracted proteins were analyzed by liquid chromatography-mass spectrometry (LC-MS) and proteins whose expression increased or decreased during AAV2 production due to the presence or absence of ethanol addition were analyzed.

HEK293 cells [2] = format: cell-based, human
HEK293 cells [3] = conditions: for Full rate / AAV2 particle number: ethanol 0.56 v/v %, AAV2 produced in cells
Description: AAV2 particles (whole particles with and without AAV2 genome) extracted from the culture supernatant and producing cells were measured using a commercially available AAV2 ELISA kit (PROGENE, AAV2 Titration ELISA) and according to the instructions of the kit.
The proportion (Full rate) of AAV2 particles containing the integrated AAV2 genome was calculated from the total number of AAV2 particles quantified by the ELISA method and the quantitative value of particles containing the integrated AAV2 genome obtained from ddPCR.

HEK293 cells [4] = conditions: for culture supernatant genome titer / cell lysate genome titer / cell lysate genome integrity / culture supernatant genome integrity: ethanol 0.28 v/v %; for culture supernatant genome titer: 3 days after transfection
Description: In the same manner as in Example 1, “1.

[5] = 48 and 72 hours after transfection of plasmid DNA for AAV2 production
[6] = 48 hr, protein vs control (no ethanol addition)
[7] = 72 hr, protein vs control (no ethanol addition)
[8] = Downregulated pathway when ethanol was added, time after transfection
[9] = Upregulated pathway when ethanol was added, time after transfection

Description for Hela cells: AAV2 was extracted from the culture supernatant and producing cells and an AAV2 solution was prepared. Three days after adding the AAV2 solution to cultured Hela cells, the number of cells expressing the GFP protein derived from the added AAV2 was measured, and the number of cells infected by the AAV2 solution per mL was calculated.

CCO [ethanol]
cell proliferation rate during AAV2 production (HEK293 cells [1]; ethanol amounts where intracellular AAV2 genome titer is higher than control): equivalent to or higher than in the control condition | viability of the producing cells on day 3 after transfection (HEK293 cells [1]; ethanol amounts where intracellular AAV2 genome titer is higher than control, FIG. 1C): maintained higher than in the control condition | pathway change, CLEAR Signaling Pathway (AAV2-producing cells; [5]): activated | pathway change, Estrogen Receptor Signaling (AAV2-producing cells; [5]): activated | pathway change, Interferon Signaling (AAV2-producing cells; [5]): suppressed | pathway change, NAD Signaling (AAV2-producing cells; [5]): activated | pathway change, Necroptosis Signaling Pathway (AAV2-producing cells; [5]): suppressed | pathway change, Protein Kinase A Signaling (AAV2-producing cells; [5]): activated | pathway change, Role of Hypercytokinemia/hyperchemokinemia in the Pathogenesis of influenza (AAV2-producing cells; [5]): suppressed | pathway change, Superpathway of Cholesterol Biosynthesis (AAV2-producing cells; [5]): activated | Fold Change CAPN5 (AAV2-producing cells; [6]): 2.10 | Fold Change DUSP9 (AAV2-producing cells; [6]): −1.30 | Fold Change GLUL (AAV2-producing cells; [6]): −1.80 | Fold Change GNG2 (AAV2-producing cells; [6]): 1.75 | Fold Change GNPTG (AAV2-producing cells; [6]): −1.59 | Fold Change H1-4 (AAV2-producing cells; [6]): −1.33 | Fold Change HPS5 (AAV2-producing cells; [6]): 100 | Fold Change IFI35 (AAV2-producing cells; [6]): 100 | Fold Change IFIT1 (AAV2-producing cells; [6]): −1.60 | Fold Change IFIT3 (AAV2-producing cells; [6]): −1.73 | Fold Change IFITM3 (AAV2-producing cells; [6]): 1.19 | Fold Change ISG15 (AAV2-producing cells; [6]): −1.77 | Fold Change MED14 (AAV2-producing cells; [6]): 1.16 | Fold Change MERTK (AAV2-producing cells; [6]): 1.44 | Fold Change MITF (AAV2-producing cells; [6]): −1.33 | Fold Change NAGLU (AAV2-producing cells; [6]): 100 | Fold Change NGFR (AAV2-producing cells; [6]): 2.60 | Fold Change NPRL3 (AAV2-producing cells; [6]): 100 | Fold Change PKN (paxillin) (AAV2-producing cells; [6]): −1.31 | Fold Change PRKAG2 (AAV2-producing cells; [6]): 100 | Fold Change SMAD3 (AAV2-producing cells; [6]): 100 | Fold Change TIMM10 (AAV2-producing cells; [6]): −8.00 | Fold Change TNIP1 (AAV2-producing cells; [6]): −100 | Fold Change TRPM1 (AAV2-producing cells; [6]): −2.58 | Fold Change BAX (AAV2-producing cells; [7]): 1.11 | Fold Change CAPN5 (AAV2-producing cells; [7]): 1.51 | Fold Change CCL5 (AAV2-producing cells; [7]): −1.79 | Fold Change DHCR24 (AAV2-producing cells; [7]): −1.03 | Fold Change DXO (AAV2-producing cells; [7]): 100 | Fold Change FADD (AAV2-producing cells; [7]): 1.54 | Fold Change GLUL (AAV2-producing cells; [7]): −1.91 | Fold Change GNG2 (AAV2-producing cells; [7]): 1.60 | Fold Change HADHA (AAV2-producing cells; [7]): 1.23 | Fold Change HADHB (AAV2-producing cells; [7]): 1.29 | Fold Change HMGCS1 (AAV2-producing cells; [7]): −1.21 | Fold Change HPS5 (AAV2-producing cells; [7]): 100 | Fold Change IFI35 (AAV2-producing cells; [7]): −100 | Fold Change IFIT1 (AAV2-producing cells; [7]): −1.53 | Fold Change IFIT3 (AAV2-producing cells; [7]): −1.51 | Fold Change INS (AAV2-producing cells; [7]): 1.58 | Fold Change IRE3 (interferon regulatory factor 3) (AAV2-producing cells; [7]): 1.09 | Fold Change ISG15 (AAV2-producing cells; [7]): −1.52 | Fold Change MED6 (AAV2-producing cells; [7]): −100 | Fold Change MED14 (AAV2-producing cells; [7]): 1.07 | Fold Change MITF (AAV2-producing cells; [7]): −1.28 | Fold Change MSMG1 (methylsterol monooxygenase 1) (AAV2-producing cells; [7]): −1.07 | Fold Change MT-CYB (AAV2-producing cells; [7]): 3.49 | Fold Change MT-ND4 (AAV2-producing cells; [7]): −1.65 | Fold Change NAGLU (AAV2-producing cells; [7]): −1.74 | Fold Change NFKB1 (AAV2-producing cells; [7]): 1.07 | Fold Change NGFR (AAV2-producing cells; [7]): 2.35 | Fold Change NTN1 (AAV2-producing cells; [7]): −1.60 | Fold Change POLRZI (RNA polymerase II subunit I) (AAV2-producing cells; [7]): −1.42 | Fold Change PPP1R140 (protein phosphatase 1 regulatory inhibitor subunit 14C) (AAV2-producing cells; [7]): −1.29 | Fold Change PRKAG2 (AAV2-producing cells; [7]): 100 | Fold Change PTPRK (AAV2-producing cells; [7]): −1.31 | Fold Change RAF1 (AAV2-producing cells; [7]): −1.29 | Fold Change RXRA (AAV2-producing cells; [7]): −1.40 | Fold Change SC5D (AAV2-producing cells; [7]): 100 | Fold Change SLC29A1 (AAV2-producing cells; [7]): −1.28 | Fold Change TIMM10 (AAV2-producing cells; [7]): 1.51 | Fold Change TNIP1 (AAV2-producing cells; [7]): −100 | Fold Change TOMM6 (AAV2-producing cells; [7]): 1.63 | Fold Change TOMM7 (AAV2-producing cells; [7]): −1.40 | Fold Change TP53 (AAV2-producing cells; [7]): −1.18 | Regulated timing, Interferon Signaling (AAV2-producing cells; [8]): 48 hr, 72 hr | Regulated timing, Necroptosis Signaling Pathway (AAV2-producing cells; [8]): 48 hr, 72 hr | Regulated timing, Role of Hypercytokinemia/hyperchemokinemia in the Pathogenesis of influenza (AAV2-producing cells; [8]): 72 h | Regulated timing, Activation of IRF by Cytosolic Pattern recognition receptors (AAV2-producing cells; Pathway where change was identified when ethanol was added, time after transfection): 72 h | Regulated timing, CLEAR Signaling Pathway (AAV2-producing cells; [9]): 48 hr, 72 hr | Regulated timing, Estrogen Receptor Signaling (AAV2-producing cells; [9]): 72 h | Regulated timing, NAD Signaling (AAV2-producing cells; [9]): 72 h | Regulated timing, Protein Kinase A Signaling (AAV2-producing cells; [9]): 48 hr, 72 hr | Regulated timing, Superpathway of Cholesterol Biosynthesis (AAV2-producing cells; [9]): 72 h | infection titer (infecting cells and expressing GFP per volume of lysate) (Hela cells; AAV2 vector produced with ethanol addition vs control, Table 4): high | infection titer (Hela cells; ethanol 0.56 v/v %, intracellular AAV2 extract, same amount of genome titer, control 1.36E+08): 1.63E+08 ifu/mL | genome titer of AAV2 both in cells and in the culture supernatant (HEK293 cells [2]; ethanol 0.09 to 2.2 V/V %, particularly at not exceeding 1.1 v/v %, vs no ethanol, FIG. 1A, 1B): improved | genome integrity (HEK293 cells [2]; ethanol 0.56 v/v %, intracellular AAV2 extract, control 45.6): 54.7% | genome titer (HEK293 cells [2]; ethanol 0.56 v/v %, intracellular AAV2 extract, ddPCR primer for ITR region, control 4.40E+07): 6.59E+07 vg/μL | percentage of integrated genome in AAV2 in the producing cells (HEK293 cells [2]; ethanol added within the range of about 2v/v %, FIG. 2A): clearly higher | proportion of the integrated genome in AAV2 (HEK293 cells [2]; ethanol addition during AAV2 production, FIG. 2A, 2B): improved | genome titer (HEK293 cells [2]; test (1), ethanol 0.56 v/v %, AAV2 produced in cells, control 2.26E+07): 5.05E+07 vg/μL | genome titer (HEK293 cells [2]; test (2), ethanol 0.56 v/v %, AAV2 produced in cells, control 3.23E+07): 3.81E+07 vg/μL | rate of incorporation of AAV2-derived genome into the produced AAV2 capsid (HEK293 cells [3]; AAV2 produced with addition of ethanol vs control, Table 3): higher | Full rate (HEK293 cells [3]; test (1), control 2.30): 3.58% | AAV2 particle number (HEK293 cells [3]; test (1), control 9.86E+11): 1.41E+12 particles/mL | AAV2 particle number (HEK293 cells [3]; test (2), control 1.04E+12): 1.13E+12 particles/mL | Full rate (HEK293 cells [3]; test (2), control 3.12): 3.38% | culture supernatant genome titer (HEK293 cells [4]; AAV1, control 3.34E+06): 5.09E+06 vg/μL | cell lysate genome titer (HEK293 cells [4]; AAV1, control 2.67E+06): 4.67E+06 vg/μL | cell lysate genome integrity (HEK293 cells [4]; AAV1, control 43.3): 54.2% | culture supernatant genome integrity (HEK293 cells [4]; AAV1, control 49.3): 58.6% | culture supernatant genome titer (HEK293 cells [4]; AAV6, control 1.20E+05): 1.08E+05 vg/μL | cell lysate genome titer (HEK293 cells [4]; AAV6, control 1.60E+07): 2.05E+07 vg/μL | culture supernatant genome integrity (HEK293 cells [4]; AAV6, control 23.7): 28.6% | cell lysate genome integrity (HEK293 cells [4]; AAV6, control 51.8): 55.1% | amount of AAV1 produced (genome titer) and genome integrity, in culture supernatant and within cells (HEK293 cells [4]; when ethanol was added): improved | amount of AAV6 produced within cells (genome titer) (HEK293 cells [4]; when ethanol was added): improved | genome integrity of AAV6 in culture supernatant and within cells (HEK293 cells [4]; when ethanol was added): improved

CC(C)O [Isopropanol, isopropanol]
genome titer (HEK293 cells [2]; test (4), additive 0.61 v/v %, AAV2 in cells, control 2.40E+07): 2.26E+07 vg/μL | genome integrity (HEK293 cells [2]; test (4), additive 0.61 v/v %, AAV2 in cells, control 53.4): 58.5%

CO [Methanol, methanol]
genome titer (HEK293 cells [2]; test (4), additive 0.33 v/v %, AAV2 in cells, control 2.40E+07): 2.94E+07 vg/μL | genome integrity (HEK293 cells [2]; test (4), additive 0.33 v/v %, AAV2 in cells, control 53.4): 58.4%

OCC(O)CO [Glycerol, glycerol]
genome titer (HEK293 cells [2]; test (3), additive 0.73 v/v %, AAV2 in cells, 3 days after transfection, control 2.26E+07): 4.50E+07 vg/μL | genome integrity (HEK293 cells [2]; test (3), additive 0.73 v/v %, AAV2 in cells, control 51.9): 58.9% | genome titer (HEK293 cells [2]; test (4), additive 0.38 v/v %, AAV2 in cells, control 2.40E+07): 2.78E+07 vg/μL | genome integrity (HEK293 cells [2]; test (4), additive 0.38 v/v %, AAV2 in cells, control 53.4): 55.2% | genome titer (HEK293 cells [2]; test (4), additive 1.15 v/v %, AAV2 in cells, control 2.40E+07): 3.66E+07 vg/μL | genome integrity (HEK293 cells [2]; test (4), additive 1.15 v/v %, AAV2 in cells, control 53.4): 58.5%

C[S+](C)[O-] [DMSO, dimethyl sulfoxide]
TFday 3 VCD (HEK293 cells [1]; test (5), additive 0.57 v/v %, day 3 after transfection, control 4.17E+06): 4.58E+06 cells/mL | TF day 3 Viability (HEK293 cells [1]; test (5), additive 0.57 v/v %, day 3 after transfection, control 78.5): 81.5% | cell growth and substance production (HEK293 cells [1]; when the concentration is low): improving | improving integrity of the genome in produced AAV2 and genome titer (productivity) (HEK293 cells [2]; DMSO, Table 8): effective | genome titer (HEK293 cells [2]; test (5), additive 0.57 v/v %, AAV2 produced in cells, control 2.40E+07): 3.35E+07 vg/μL | genome integrity (HEK293 cells [2]; test (5), additive 0.57 v/v %, AAV2 produced in cells, control 53.4): 59.3%
